# Article PMC8874984, “Improved Cell-Potent and Selective Peptidomimetic Inhibitors of Protein N-Terminal Methyltransferase 1” (Molecules, 2022)
# Where two headings read alike, the source gives them in different places.
# Tests used:
# [1] = system: cellular α-N-terminal methylation level in HCT116 cells; assay: Cellular N-terminal methylation level, Western blot with anti-me3-SPK antibody; assay type: cell-based; conditions: Homo sapiens, HCT-116, cellular N-terminal methylation inhibition, n = 2
# Procedure: Next, we investigated the effects of all peptidomimetic inhibitors with GI50 > 100 µM and IC50 < 1 µM on the cellular α-N-terminal methylation level in HCT116 cells (Table 2). Then, we examined the top three cell-potent peptidomimetic inhibitors 1d–f on the dose-response of inhibition of cellular N-terminal methylation levels. […] As the biochemical IC50 value of GD562 was about three-fold higher than DC541, we proposed that the improved cellular inhibition of GD562 may be attributed to its increased permeability with higher cLogP than DC541.
# Figure 5 Inhibition of cellular N-terminal methylation by peptidomimetic inhibitors in HCT116 cells. Representative Western blot results of the effects of GD562 (A), GD564 (B), and GD573 (C) on the cellular methylation level. Image quantification was performed using ImageJ software (NIH). […] All experiments were performed in duplicate (n = 2). […]
# Cellular N-methylation level.
# The gel was transferred to a
# system. Image quantification was done using ImageJ software (NIH). All bands were compared
# OrganicsTM, AC418900050) dissolved in sterile 1 x PBS. […]
# in vitro = conditions: PAMPA
# [2] = Cytotoxicity by alamarBlue assay in HCT116 cells; conditions: human, GI50, HCT116 cells
# Procedure: (§1) Cell viability assay. HCT116 cells were seeded as 5,000 cells/well on 96-well plates in the
# (§2) presence of 1x PBS or DC541 at different concentrations for 24, 48, or 72 hours. Cell viability
# (§3) was assessed using 0.2 mg/ml resazurin solutions prepared from resazurin sodium salt (Acros
# (§4) OrganicsTM, AC418900050) dissolved in sterile 1 x PBS. Then, the cells were incubated with
# (§5) 10 µl resazurin solution (10% of cell culture volume) for four hours at 37 °C. The fluorescence
# (§6) Cell viability was calculated as 100% × (fluorescence of treated cells – fluorescence of
# (§7) background controls) / (fluorescence of 1x PBS controls – fluorescence of background
# NTMT1 [3] = target: T1, NTMT1 (Homo sapiens, UniProt Q9BV86); assay: SAHH-coupled fluorescence assay of NTMT1 inhibition; assay type: biochemical; conditions: for IC50: SAHH-coupled fluorescence assay, n = 2, mean ± SD, read-out: IC50; for Expt. ΔGbind ± σ: estimated from the IC50 values in Table 1; for IC50/IC50 (DC541): ratio of NTMT1 IC50 to that of DC541
# T1 construct: made in house
# T1 sequence (Q9BV86 1-223): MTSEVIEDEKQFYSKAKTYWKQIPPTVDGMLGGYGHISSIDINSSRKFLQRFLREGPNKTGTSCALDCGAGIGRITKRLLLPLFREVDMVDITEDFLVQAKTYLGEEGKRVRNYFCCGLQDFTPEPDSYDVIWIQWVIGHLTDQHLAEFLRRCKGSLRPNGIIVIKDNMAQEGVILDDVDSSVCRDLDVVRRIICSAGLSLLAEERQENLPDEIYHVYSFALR
# [4] = system: NTMT1 knockout HCT116 cells; assay: Cytotoxicity by alamarBlue assay in NTMT1 knockout HCT116 cells; assay type: cell-based, human; conditions: wild-type and NTMT1 knockout HCT116 cells
# SETD7 = target: T2, SETD7 (Homo sapiens, UniProt Q8WTS6); assay: In-house selectivity study, fluorescence assay: SETD7; assay type: biochemical; conditions: read-out: inhibition of enzyme activity
# T2 construct: made in house
# T2 sequence (Q8WTS6 1-366): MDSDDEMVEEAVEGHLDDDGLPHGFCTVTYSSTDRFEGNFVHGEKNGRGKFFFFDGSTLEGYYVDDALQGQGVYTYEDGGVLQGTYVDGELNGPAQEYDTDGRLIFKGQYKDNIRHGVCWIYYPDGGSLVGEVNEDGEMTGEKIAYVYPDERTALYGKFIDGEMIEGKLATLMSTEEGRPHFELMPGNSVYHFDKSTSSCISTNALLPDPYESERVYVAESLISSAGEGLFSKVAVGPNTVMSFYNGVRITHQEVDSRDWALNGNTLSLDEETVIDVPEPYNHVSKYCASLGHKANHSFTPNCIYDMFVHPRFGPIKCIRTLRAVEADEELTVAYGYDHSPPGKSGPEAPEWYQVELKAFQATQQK
# TbPRMT7 = TbPRMT7 (Trypanosoma brucei brucei, UniProt Q582G4); assay: biochemical; conditions: read-out: inhibition of enzyme activity
# Chain of TbPRMT7 (Q582G4 whole entry): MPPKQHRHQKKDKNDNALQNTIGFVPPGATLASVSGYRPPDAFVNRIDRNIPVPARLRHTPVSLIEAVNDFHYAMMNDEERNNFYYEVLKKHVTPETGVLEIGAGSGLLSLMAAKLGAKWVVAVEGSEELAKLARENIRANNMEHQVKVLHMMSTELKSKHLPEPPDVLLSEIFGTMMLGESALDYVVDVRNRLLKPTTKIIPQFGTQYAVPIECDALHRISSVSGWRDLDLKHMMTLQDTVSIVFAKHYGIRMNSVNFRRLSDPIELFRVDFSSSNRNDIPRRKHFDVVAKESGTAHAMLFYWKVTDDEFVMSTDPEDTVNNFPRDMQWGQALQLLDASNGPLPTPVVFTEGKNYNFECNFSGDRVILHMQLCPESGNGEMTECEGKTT
# SAHH = SAHH (Homo sapiens, UniProt P23526); assay: In-house selectivity study, fluorescence assay: coupling enzyme SAHH; assay type: biochemical; conditions: n = 2
# Chain of SAHH (P23526 whole entry, species assumed): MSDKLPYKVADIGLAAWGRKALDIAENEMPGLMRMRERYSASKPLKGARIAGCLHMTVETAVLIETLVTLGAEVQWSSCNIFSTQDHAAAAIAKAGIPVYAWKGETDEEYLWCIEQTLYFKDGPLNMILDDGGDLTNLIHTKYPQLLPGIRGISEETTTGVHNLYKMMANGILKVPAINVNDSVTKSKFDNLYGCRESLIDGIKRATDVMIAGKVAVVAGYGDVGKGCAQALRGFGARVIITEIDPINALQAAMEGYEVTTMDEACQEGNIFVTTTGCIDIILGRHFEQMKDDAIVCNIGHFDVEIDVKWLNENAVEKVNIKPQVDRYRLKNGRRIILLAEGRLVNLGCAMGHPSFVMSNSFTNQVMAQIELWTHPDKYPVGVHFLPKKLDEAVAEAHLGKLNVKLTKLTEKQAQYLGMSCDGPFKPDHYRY
# Procedure: Figure 6 In-house selectivity studies of GD562. The compound was tested at 100, 30, and 10 µM (n = 2). Both SAM and substrate are at their Km values.
# PRMT1 = target: T3, PRMT1 (Homo sapiens, UniProt Q99873); assay: In-house selectivity study, fluorescence assay: PRMT1; assay type: biochemical; conditions: read-out: inhibition of enzyme activity
# T3 construct: made in house
# T3 sequence (Q99873 whole entry, species assumed): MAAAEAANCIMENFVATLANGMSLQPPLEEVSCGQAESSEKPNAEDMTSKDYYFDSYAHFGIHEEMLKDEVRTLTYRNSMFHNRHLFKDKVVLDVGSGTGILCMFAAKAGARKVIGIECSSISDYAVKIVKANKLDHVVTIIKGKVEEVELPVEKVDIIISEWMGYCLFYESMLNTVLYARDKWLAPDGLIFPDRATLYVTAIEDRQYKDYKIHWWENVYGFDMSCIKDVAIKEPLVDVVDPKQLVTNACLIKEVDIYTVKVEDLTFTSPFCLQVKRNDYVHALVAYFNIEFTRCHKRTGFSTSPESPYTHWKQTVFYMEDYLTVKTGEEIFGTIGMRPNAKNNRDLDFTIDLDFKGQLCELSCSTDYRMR
# me3-SET [5] = assay: Cellular me3-SET level in HCT116 cells; assay type: cell-based, human
# G9a = target: T4, G9a (Homo sapiens, UniProt Q96KQ7); assay: In-house selectivity study, fluorescence assay: G9a; assay type: biochemical; conditions: read-out: inhibition of enzyme activity
# T4 sequence (Q96KQ7 1-1210): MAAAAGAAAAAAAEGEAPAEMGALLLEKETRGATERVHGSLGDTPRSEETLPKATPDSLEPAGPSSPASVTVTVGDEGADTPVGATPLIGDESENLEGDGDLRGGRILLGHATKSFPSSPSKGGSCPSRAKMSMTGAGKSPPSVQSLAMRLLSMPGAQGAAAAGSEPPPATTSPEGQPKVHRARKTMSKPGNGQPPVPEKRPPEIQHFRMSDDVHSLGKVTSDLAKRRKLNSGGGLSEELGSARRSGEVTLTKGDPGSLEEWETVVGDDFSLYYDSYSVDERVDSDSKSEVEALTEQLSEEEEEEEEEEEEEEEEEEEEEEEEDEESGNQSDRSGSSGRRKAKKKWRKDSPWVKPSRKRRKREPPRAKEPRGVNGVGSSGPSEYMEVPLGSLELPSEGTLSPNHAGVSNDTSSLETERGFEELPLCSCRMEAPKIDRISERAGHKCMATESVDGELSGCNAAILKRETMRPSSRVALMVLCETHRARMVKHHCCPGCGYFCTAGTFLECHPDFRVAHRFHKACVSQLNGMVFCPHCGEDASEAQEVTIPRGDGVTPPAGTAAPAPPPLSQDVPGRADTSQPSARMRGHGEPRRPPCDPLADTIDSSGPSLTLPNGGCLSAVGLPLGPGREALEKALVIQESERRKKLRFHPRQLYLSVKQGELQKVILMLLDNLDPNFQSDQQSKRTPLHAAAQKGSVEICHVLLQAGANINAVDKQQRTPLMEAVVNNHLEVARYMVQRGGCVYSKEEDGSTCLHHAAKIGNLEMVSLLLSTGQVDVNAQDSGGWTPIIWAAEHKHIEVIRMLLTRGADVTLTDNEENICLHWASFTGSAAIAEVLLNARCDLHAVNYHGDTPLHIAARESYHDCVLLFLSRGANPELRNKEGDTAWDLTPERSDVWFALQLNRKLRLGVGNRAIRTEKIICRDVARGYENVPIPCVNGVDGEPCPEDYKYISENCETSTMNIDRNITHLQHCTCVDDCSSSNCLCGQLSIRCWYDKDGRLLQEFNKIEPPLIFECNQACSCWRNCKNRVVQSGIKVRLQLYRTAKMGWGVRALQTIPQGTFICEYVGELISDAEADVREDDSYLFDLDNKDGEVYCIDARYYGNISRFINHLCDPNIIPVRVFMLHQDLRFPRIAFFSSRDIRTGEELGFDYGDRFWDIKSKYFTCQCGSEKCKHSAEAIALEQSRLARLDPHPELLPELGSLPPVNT
# me3-RCC1 [6] = assay: Cellular me3-RCC1 level in HCT116 cells; assay type: cell-based, human
# NNMT = target: T5, NNMT (Homo sapiens, UniProt P40261); assay: In-house selectivity study, fluorescence assay: NNMT; assay type: biochemical; conditions: read-out: inhibition of enzyme activity
# T5 construct: made in house
# T5 sequence (P40261 1-264): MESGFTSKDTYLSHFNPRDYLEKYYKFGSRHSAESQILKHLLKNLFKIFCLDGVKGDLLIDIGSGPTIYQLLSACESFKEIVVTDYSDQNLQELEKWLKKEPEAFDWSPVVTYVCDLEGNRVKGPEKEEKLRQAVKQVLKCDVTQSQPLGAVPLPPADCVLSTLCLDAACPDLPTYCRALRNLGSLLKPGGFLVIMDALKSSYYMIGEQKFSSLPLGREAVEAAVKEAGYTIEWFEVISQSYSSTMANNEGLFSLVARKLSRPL
# me3-RCC1 [7] = system: me3-RCC1; set-up: method as in PMID 33738076; conditions: cited from earlier work
# NTMT1 [8] = target: T1, NTMT1; conditions: cited from earlier work
# HCT116 cells = assay: Cytotoxicity by alamarBlue assay in HCT116 cells
# Procedure: as §1, §2, §3, §4, §5, §6, §7
# me3-SET [9] = system: me3-SET; set-up: method as in PMID 33738076; conditions: even at 300 µM in HCT116 cells; cited from earlier work
SMILES,IC50 [1] [µM],Papp (in vitro) [×10⁻⁶ cm/s],GI50 [2] [µM],IC50 (NTMT1 [3]) [µM],Expt. ΔGbind ± σ (NTMT1 [3]) [kcal/mol],IC50/IC50 (DC541) (NTMT1 [3]),also measured
NCCCCC(NC(=O)C1CCCN1C(=O)Cc1cccc2ccccc12)C(=O)NCC1CCCCC1 (stereo not shown) [Compound 1f],~100,0.47 ± 0.07,> 300,0.94 ± 0.03,-8.22 ± 0.03,2.8,–
NCCCCC(NC(=O)C1CCCN1C(=O)Cc1cccc2ccccc12)C(=O)Nc1cccc(Br)c1 (stereo not shown) [Compound 1a],–,–,< 70,0.17 ± 0.008,-9.24 ± 0.04,0.50,GI50 in NTMT1 knockout versus wild-type HCT116 cells [4]: comparable GI50 value
NCCCCC(NC(=O)C1CCCN1C(=O)Cc1cccc2ccccc12)C(=O)NCCc1ccccc1 (stereo not shown) [Compound 1d],~50,0.26 ± 0.06,> 300,–,–,–,"inhibition at 100 µM (SETD7): ≤ 50%; inhibition at 100 µM (TbPRMT7): ≤ 50%; inhibition at 100 µM (SAHH): ≤ 50%; inhibition at 100 µM (PRMT1): ≤ 50%; increase of inhibitory activity for the SET protein compared with DC541 (me3-SET [5]): over 6 fold; IC50 (me3-SET [5]; Homo sapiens, HCT-116): ~50 µM; inhibition at 100 µM (G9a): ≤ 50%; increase in cellular inhibition activity on me3-RCC1 compared to DC541 (me3-RCC1 [6]): over 2 fold; IC50 (me3-RCC1 [6]; Homo sapiens, HCT-116): ~50 µM; inhibition at 100 µM (NNMT): ≤ 50%"
NCCCC[C@H](NC(=O)[C@@H]1CCCN1C(=O)Cc1ccc(O)cc1)C(=O)N[C@@H](CCCN=C(N)N)C(N)=O [BM30],–,–,–,–,–,–,"IC50 (me3-RCC1 [7]; Figure 1, previously reported inhibitors, read-out: Celluar IC50): > 1000 µM; selectivity for NTMT1/2 among a panel of 41 methyltransferases (NTMT1 [8]): over 100 fold; IC50 (NTMT1 [8]; previously reported inhibitor): 0.89 ± 0.1 µM"
NCCCCC(NC(=O)C1CCCN1C(=O)Cc1cccc2ccccc12)C(=O)NCCc1ccc(-c2ccccc2)cc1 (stereo not shown) [Compound 1j],–,0.9 ± 0.3,–,–,–,7.4,–
NCCCC[C@H](NC(=O)[C@@H]1CCCN1C(=O)Cc1cccc2ccccc12)C(=O)NCc1ccc(Br)cc1 [Compound 1h],< 300,0.9 ± 0.2,~130,0.82 ± 0.07,-8.30 ± 0.07,2.4,GI50 (HCT116 cells): 135 ± 23 µM
NCCCCC(NC(=O)C1CCCN1C(=O)Cc1cccc2ccccc12)C(=O)Nc1ccc(Br)cc1 (stereo not shown) [Compound 1b],–,–,< 70,0.18 ± 0.007,-9.20 ± 0.03,0.53,–
NCCCC[C@H](NC(=O)[C@@H]1CCCN1C(=O)Cc1cccc2ccccc12)C(=O)NCc1cccc(Br)c1 [Compound 1g],< 300,0.6 ± 0.1,~130,0.58 ± 0.03,-8.51 ± 0.04,1.7,GI50 (HCT116 cells): 128 ± 20 µM
NCCCCC(NC(=O)C1CCCN1C(=O)Cc1cccc2ccccc12)C(=O)NCCc1cccc(-c2ccccc2)c1 (stereo not shown) [Compound 1k],–,1.3 ± 0.4,< 70,–,–,2.0,GI50 (HCT116 cells): 65 ± 7 µM
"NCCCCC(NC(=O)C1CCCN1C(=O)Cc1cccc2ccccc12)C(=O)Nc1ccccc1C(N)=O (stereo not shown) [DC541, reference compound]",–,–,–,0.34 ± 0.03,-8.82 ± 0.07,1.0,"IC50 (me3-RCC1 [7]; HCT116 cells, read-out: cellular IC50 on the me3-RCC1 level): ~100 µM; inhibition of me3-SET level (me3-SET [9]): did not show any inhibition"
NCCCCC(NC(=O)C1CCCN1C(=O)Cc1cccc2ccccc12)C(=O)NCc1ccccc1 (stereo not shown) [Compound 1c],< 300,0.24 ± 0.06,> 300,0.91 ± 0.03,-8.24 ± 0.03,2.7,–
CN(CCc1ccccc1)C(=O)C(CCCCN)NC(=O)C1CCCN1C(=O)Cc1cccc2ccccc12 (stereo not shown) [Compound 1i],–,–,–,1.7 ± 0.07,–,5.0,–
